Experimental data from patent US9351955B2, “Compounds and pharmaceutical compositions thereof for the treatment of cystic fibrosis” (Galapagos NV, priority 2013, dated 2016).

Experiments:
CFTR G551D mutant = molecular target: T1, CFTR G551D mutant (Homo sapiens, UniProt P13569, G551D); test: YFP-halide influx assay for the CFTR-G551D mutation (HEK293 cells); format: cell-based; details: HEK293 cells expressing CFTR G551D and YFP reporter; forskolin 10.67 μM; read-out: EC50 measured by YFP-halide influx assay for the CFTR-G551D
T1 construct: expressed in transfected cells; host or cells: HEK293 (reverse transfection with plasmids)
Method in brief: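 HEK293 cells reverse-transfected with CFTR G551D and halide-sensitive YFP, expressed 24 h at 37 °C. Iodide-induced fluorescence quench recorded for 7 s after I^− injection; response as 1−F/F0, EC50 from concentration plot.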

CFTR ΔF508 mutant [1] = molecular target: T2, CFTR ΔF508 mutant (Homo sapiens, UniProt P13569, DEL508-508); test: YFP-halide influx assay for the CFTR-ΔF508 mutation (384 well, CFBE41o- cells, FDSS/μCell); format: cell-based; details: forskolin 10.67 μM, fluorescence after 36 seconds, read-out: EC50 measured by YFP-halide influx assay for the CFTR-ΔF508
T2 construct: expressed in transfected cells; host or cells: CFBE41o- (adenoviral transduction)
Method in brief: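 CFBE41o- cells were adenovirally transduced with ΔF508 CFTR and the YFP H148Q/I152L reporter. Cells were then held 24 h at 27 °C or treated 24 h at 37 °C with a CFTR modulator. Iodide-induced quench was recorded for 2 min, and EC50 was derived from 1−F/F0 at 36 s against compound concentration.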

CFTR G551D = CFTR G551D (Homo sapiens, UniProt P13569, G551D); test: TECC assay, FRT cells stably transfected with G551D CFTR; format: cell-based; details: high expression CFTR-G551D cells, several values in a cell = repeat determinations
Experimental: 7.2.3. FRT-CFTR G551D Protocol
For G551D recordings, Fish Rat Thyroid (FRT) cells stably transfected with G551D CFTR (a low CFTR-G551D expressing cell line and a high expressing CFTR-G551D cell line from Rosalind Franklin University of medicine and science, Chicago, Ill.) are plated on Transwell supports (Costar 6.5 mm Diameter, […]). The cells are grown for 8-10 d under liquid-liquid interface conditions prior to electrophysiological readings. For electrophysiological recording, the FRT-G551D cells are mounted in the TECC heating plate for electrophysiological measurement and kept at 37° C. The epithelia are bathed in hepes buffered culturing medium without FBS on both the basolateral and apical sides. Apical amiloride is used to inhibit the endogenous ENaC currents while forkolin is applied on both apical and basolateral side to stimulate CFTR. After forskolin triggering, compounds are added on both sides to test their potential for increasing CFTR gating. Measurements are done during a 10 minute timeframe with recordings every 2 min. The increase in ISC is used as a measure for the increased CFTR activity, EC50 values can be generated by measuring impact of different concentrations of compound on ISC on the cells, for this purpose each transwell is treated with a different compound concentration. Inh-172, an inhibitor specific for CFTR, is used to test the specificity of the tested compounds.
When subjected to this protocol, the following EC50 are measured.

CFTR-S549N = molecular target: T3, CFTR-S549N (Homo sapiens, UniProt P13569, S549N); test: YFP-halide influx assay for the CFTR-S549N; format: cell-based; details: CFTR-S549N mutant; read-out: EC50 measured by YFP-halide influx assay for the CFTR-S549N
T3 construct: expressed in transfected cells
Method in brief: (§1)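 HEK293 cells reverse-transfected with mutant CFTR and halide-sensitive YFP H148Q/I152L/F47L reporter, then expressed 24 h at 37 °C, 5% CO2. Fluorescence quenching recorded for 7 s after I^− injection; response expressed as 1−F/F0, with EC50 derived from response versus compound concentration.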

CFTR-G1349D = molecular target: T4, CFTR-G1349D (Homo sapiens, UniProt P13569, G1349D); test: YFP-halide influx assay for the CFTR-G1349D; format: cell-based; details: CFTR-G1349D mutant; read-out: EC50 measured by YFP-halide influx assay for the CFTR-G1349D
T4 construct: expressed in transfected cells
Method in brief: as §1

CFTR-G178R = molecular target: T5, CFTR-G178R (Homo sapiens, UniProt P13569, G178R); test: YFP-halide influx assay for the CFTR-G178R; format: cell-based; details: read-out: EC50 measured by YFP-halide influx assay for the CFTR-G178R
T5 construct: expressed in transfected cells
Method in brief: as §1

CFTR-R117H = molecular target: T6, CFTR-R117H (Homo sapiens, UniProt P13569, R117H); test: YFP-halide influx assay for the CFTR-R117H; format: cell-based; details: CFTR-R117H mutant; read-out: EC50 measured by YFP-halide influx assay for the CFTR-R117H
T6 construct: expressed in transfected cells
Method in brief: as §1

Lung distribution study = format: in vivo, Sprague-Dawley rats; details: male, Sprague-Dawley, rat, plasma, oral, 10 mg/kg, exposure values
Experimental: Sprague-Dawley rats (male, 5-6 weeks old) are obtained from Janvier (France). Rats are acclimatized for at least 5 days before treatment and are kept on a 12 h light/dark cycle. Temperature is maintained at approximately 22° C., and food and water are provided ad libitum. Two days before administration of the test compounds, rats may undergo surgery to place a catheter in the jugular vein under isoflurane anesthesia. After the surgery, rats are housed individually. Rats are deprived of food for at least 16 h before oral dosing and 6 h after. Water is provided ad libitum.
8.7.3. Lung Distribution Studies
Compounds are formulated in 0.5% methylcellulose and EtOH/PEG 200/Methylcellulose 0.5% (10/25/65 v/v/v) by the oral route. Test compounds are orally dosed as a single esophageal gavage at 10 mg/kg under a dosing volume of 5 mL/kg. Each group consists of 12 rats. At each time point, typically 1, 3, 6 and 24 h, animals are euthanized and blood and lung samples are collected. Whole blood samples are centrifuged at 1500 g for 10 min and the resulting plasma samples, along with the lung samples, are stored at −20° C. pending analysis.
8.7.4. Quantification of Compound Levels in Plasma and Lung Samples
Lung samples are milled in the presence of ceramic beads and proteins present in plasma and lung samples are precipitated with an organic solvent. Concentrations of each test compound are determined by an LC-MS/MS method in which the mass spectrometer is operated in positive or negative electrospray mode.
For each animal, the lung-to-plasma ratio is determined as the ratio between compound concentration in lung and in plasma. At each sampling time point, mean, standard error of the mean (sem) and coefficient of variation (CV %) are calculated using data from three animals.

CFTR ΔF508 mutant [2] = molecular target: T2, CFTR ΔF508 mutant; test: YFP-halide influx assay for the CFTR-ΔF508 mutation (96 well, CFBE41o- cells); format: cell-based; details: compounds of the invention, 96 well, forskolin 10.67 μM, read-out: EC50 measured by YFP-halide influx assay for the CFTR-ΔF508
Method in brief: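 CFBE41o- cells were adenovirally transduced with CFTR ΔF508 and the halide-sensitive YFP H148Q/I152L. They were then corrected either at 27 °C for 24 h or with a CFTR modulator for 24 h at 37 °C. After iodide injection, YFP quenching over 7 s was expressed as 1−F/F0, and EC50 was derived from the concentration–response plot.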

T6 sequence (P13569 whole entry R117H): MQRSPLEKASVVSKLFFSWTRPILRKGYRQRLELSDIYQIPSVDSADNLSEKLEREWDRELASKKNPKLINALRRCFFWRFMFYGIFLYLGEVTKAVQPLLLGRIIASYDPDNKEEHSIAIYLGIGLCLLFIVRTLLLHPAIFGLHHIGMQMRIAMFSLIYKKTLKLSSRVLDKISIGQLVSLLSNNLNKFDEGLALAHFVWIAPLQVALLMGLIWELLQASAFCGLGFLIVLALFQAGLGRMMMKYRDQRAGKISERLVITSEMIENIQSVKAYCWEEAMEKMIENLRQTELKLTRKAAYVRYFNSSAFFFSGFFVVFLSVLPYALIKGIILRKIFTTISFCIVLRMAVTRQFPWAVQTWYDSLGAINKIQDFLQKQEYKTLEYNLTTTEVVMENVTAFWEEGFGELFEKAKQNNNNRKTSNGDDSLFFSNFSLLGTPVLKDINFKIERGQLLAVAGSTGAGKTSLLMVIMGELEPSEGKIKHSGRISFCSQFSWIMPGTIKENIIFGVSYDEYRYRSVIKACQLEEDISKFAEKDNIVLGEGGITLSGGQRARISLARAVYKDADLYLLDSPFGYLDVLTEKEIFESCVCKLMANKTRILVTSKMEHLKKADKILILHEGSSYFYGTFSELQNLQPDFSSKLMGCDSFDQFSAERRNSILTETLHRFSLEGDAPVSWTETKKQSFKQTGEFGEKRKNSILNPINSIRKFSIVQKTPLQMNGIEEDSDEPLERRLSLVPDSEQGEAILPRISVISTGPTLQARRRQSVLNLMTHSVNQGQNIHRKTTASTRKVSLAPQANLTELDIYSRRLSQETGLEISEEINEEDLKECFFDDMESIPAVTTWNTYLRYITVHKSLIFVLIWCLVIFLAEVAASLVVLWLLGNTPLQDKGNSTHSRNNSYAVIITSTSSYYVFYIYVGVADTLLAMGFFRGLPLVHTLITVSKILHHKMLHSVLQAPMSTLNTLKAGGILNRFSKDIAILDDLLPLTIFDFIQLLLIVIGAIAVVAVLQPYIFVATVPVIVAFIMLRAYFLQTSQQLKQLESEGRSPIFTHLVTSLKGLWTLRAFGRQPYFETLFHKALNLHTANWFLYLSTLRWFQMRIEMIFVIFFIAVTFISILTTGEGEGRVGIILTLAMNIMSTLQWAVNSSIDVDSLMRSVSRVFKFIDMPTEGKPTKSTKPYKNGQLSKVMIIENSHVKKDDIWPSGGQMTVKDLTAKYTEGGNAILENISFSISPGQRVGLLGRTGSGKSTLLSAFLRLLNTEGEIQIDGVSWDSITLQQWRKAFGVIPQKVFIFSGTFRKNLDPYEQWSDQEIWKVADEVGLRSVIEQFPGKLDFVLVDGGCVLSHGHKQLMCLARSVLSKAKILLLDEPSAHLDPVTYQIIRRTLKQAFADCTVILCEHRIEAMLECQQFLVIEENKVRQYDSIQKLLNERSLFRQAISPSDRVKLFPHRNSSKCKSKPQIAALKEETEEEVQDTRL
T2 sequence (P13569 with tags, fused parts or gaps DEL508-508): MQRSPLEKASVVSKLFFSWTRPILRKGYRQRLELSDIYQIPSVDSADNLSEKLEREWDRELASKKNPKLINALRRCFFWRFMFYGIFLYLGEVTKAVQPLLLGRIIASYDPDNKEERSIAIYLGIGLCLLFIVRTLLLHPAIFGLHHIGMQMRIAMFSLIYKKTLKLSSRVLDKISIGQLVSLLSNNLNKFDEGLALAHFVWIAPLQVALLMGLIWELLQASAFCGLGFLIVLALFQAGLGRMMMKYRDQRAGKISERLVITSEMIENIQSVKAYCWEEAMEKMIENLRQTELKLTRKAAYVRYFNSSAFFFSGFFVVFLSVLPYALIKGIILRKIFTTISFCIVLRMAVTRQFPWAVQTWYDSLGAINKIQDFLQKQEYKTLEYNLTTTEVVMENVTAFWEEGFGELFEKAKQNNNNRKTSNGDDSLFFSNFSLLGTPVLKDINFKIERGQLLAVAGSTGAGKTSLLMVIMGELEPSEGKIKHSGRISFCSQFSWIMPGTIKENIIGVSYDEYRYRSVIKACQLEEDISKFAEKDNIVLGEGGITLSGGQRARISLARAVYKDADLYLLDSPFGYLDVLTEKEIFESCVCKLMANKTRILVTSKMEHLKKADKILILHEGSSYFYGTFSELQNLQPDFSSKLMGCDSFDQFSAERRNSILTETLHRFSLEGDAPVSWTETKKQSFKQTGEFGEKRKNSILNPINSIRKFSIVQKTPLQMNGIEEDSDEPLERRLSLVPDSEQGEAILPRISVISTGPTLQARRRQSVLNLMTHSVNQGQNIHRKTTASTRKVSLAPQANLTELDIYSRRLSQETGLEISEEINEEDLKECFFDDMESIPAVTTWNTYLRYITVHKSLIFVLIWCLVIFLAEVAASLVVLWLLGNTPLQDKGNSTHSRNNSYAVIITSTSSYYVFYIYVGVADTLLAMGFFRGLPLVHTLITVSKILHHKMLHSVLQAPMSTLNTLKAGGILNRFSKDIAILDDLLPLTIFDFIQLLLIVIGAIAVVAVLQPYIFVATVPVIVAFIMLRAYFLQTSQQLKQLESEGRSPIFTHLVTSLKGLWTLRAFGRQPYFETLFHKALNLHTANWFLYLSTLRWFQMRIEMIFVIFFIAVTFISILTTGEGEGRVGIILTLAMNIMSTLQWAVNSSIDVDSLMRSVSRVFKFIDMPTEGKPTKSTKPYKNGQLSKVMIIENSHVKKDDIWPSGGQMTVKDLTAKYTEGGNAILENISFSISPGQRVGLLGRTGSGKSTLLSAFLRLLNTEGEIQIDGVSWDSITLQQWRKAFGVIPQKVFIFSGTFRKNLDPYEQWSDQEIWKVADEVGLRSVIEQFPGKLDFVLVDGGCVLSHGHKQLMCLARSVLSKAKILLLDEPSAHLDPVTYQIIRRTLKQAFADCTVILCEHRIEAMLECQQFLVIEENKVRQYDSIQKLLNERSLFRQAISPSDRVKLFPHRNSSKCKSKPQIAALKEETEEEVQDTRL
T1 sequence (P13569 whole entry G551D): as the sequence (P13569 whole entry R117H) above, with H117R, G551D counted along it
Chain of CFTR G551D (P13569 whole entry G551D): as the sequence (P13569 whole entry R117H) above, with H117R, G551D counted along it
T4 sequence (P13569 whole entry G1349D): as the sequence (P13569 whole entry R117H) above, with H117R, G1349D counted along it
T3 sequence (P13569 whole entry S549N): as the sequence (P13569 whole entry R117H) above, with H117R, S549N counted along it
T5 sequence (P13569 whole entry G178R): as the sequence (P13569 whole entry R117H) above, with H117R, G178R counted along it

Row | EC50 (CFTR G551D mutant) | EC50 (CFTR ΔF508 mutant [1]) | EC50 (CFTR G551D) | EC50 (CFTR-S549N) | EC50 (CFTR-G1349D) | EC50 (CFTR-G178R) | EC50 (CFTR-R117H) | AUC(0-t) (Lung distribution study) | EC50 (CFTR ΔF508 mutant [2]) | SMILES
1 | 209 nM | 0.66 nM | 193 nM | 261 nM | 142 nM | 22.5 nM | 49.9 nM |  |  | CC(C)(C)CC(O)C(=O)Nc1sc2c(c1C(N)=O)CC(C)(C)OC2(C)C (single isomer, unassigned) [Compound 110, 2-[[2-hydroxy-4,4-dimethyl-pentanoyl]amino]-5,5,7,7-tetramethyl-4H-thieno[2,3-c]pyran-3-carboxamide]
2 | 193 nM | 10.3 nM |  |  |  |  |  | 290 ng·h/mL | 15.5 nM | CCc1cc(C(=O)Nc2sc3c(c2C(N)=O)CC(C)(C)OC3(C)C)n[nH]1 [Compound 17, N-(3-carbamoyl-5,5,7,7-tetramethyl-5,7-dihydro-4H-thieno[2,3-c]pyran-2-yl)-5-ethyl-1H-pyrazole-3-carboxamide]
3 | 80.6 nM | 2.25 nM | 70 nM |  |  |  |  | 439 ng·h/mL | 4.14 nM | CC1(C)Cc2c(sc(NC(=O)c3[nH]ncc3Cl)c2C(N)=O)C(C)(C)O1 [Compound 25, N-(3-carbamoyl-5,5,7,7-tetramethyl-5,7-dihydro-4H-thieno[2,3-c]pyran-2-yl)-4-chloro-1H-pyrazole-3-carboxamide]
4 | 183 nM | 2.44 nM | 43.7 nM | 120 nM | 118 nM | 44.1 nM | 180 nM |  | 3 nM | Cc1cn[nH]c1C(=O)Nc1sc2c(c1C(N)=O)CC(C)(C)OC2(C)C [Compound 35, N-(3-carbamoyl-5,5,7,7-tetramethyl-5,7-dihydro-4H-thieno[2,3-c]pyran-2-yl)-4-methyl-1H-pyrazole-3-carboxamide]
5 | 2530 nM | 81.5 nM | 62500 nM | 2610 nM | 1190 nM | 786 nM | 807 nM |  |  | CC1(C)Cc2c(sc(NC(=O)c3cnco3)c2C(N)=O)C(C)(C)O1 [Compound 136, N-(3-carbamoyl-5,5,7,7-tetramethyl-4H-thieno[2,3-c]pyran-2-yl)oxazole-5-carboxamide]
